Laboratory results from paper PMC7394005, “Assessing the Selectivity of FXR, LXRs, CAR, and RORγ Pharmaceutical Ligands With Reporter Cell Lines” (Frontiers in Pharmacology, 2020).

Experiments:
Format in all cases: cell-based
[1] = target: T1, human LXRβ (Homo sapiens, UniProt P55055); experiment: HG5LN GAL4-LXRβ reporter cell line, agonist mode; conditions: HG5LN GAL4-LXRβ cells, tested alone; NE = No effect; read-out: LXRβ EC50
T1 construct: LXRβ (G199-E461); expressed in transfected cells; host or cells: HG5LN (HeLa cells carrying the (GAL4RE)5-βGlob-Luc-SVNeo reporter)
T1 sequence (P55055 198-460 limits assumed): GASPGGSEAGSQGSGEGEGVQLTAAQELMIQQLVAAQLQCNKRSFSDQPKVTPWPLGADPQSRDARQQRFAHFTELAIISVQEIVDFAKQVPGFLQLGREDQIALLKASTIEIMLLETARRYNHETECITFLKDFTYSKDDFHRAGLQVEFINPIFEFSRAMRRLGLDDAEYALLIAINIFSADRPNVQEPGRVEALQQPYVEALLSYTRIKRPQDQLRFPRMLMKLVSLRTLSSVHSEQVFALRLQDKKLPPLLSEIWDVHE
Description: (§1) To construct GAL4-NR chimeras, individual LBDs of human FXR (R193-Q486), LXRα (A187-E447), LXRβ (G199-E461), CAR (M76-S348), and RORγ (S97-K518) were amplified by PCR with primers containing XhoI and SacI restriction sites (FXR), XhoI and BamHI (LXRs, CAR, RORγ) and inserted in pSG5-GAL4(DBD)-puromycin plasmid. To construct GAL4-CAR (+ APYLT) (M76-S353), the five amino acids APYLT were inserted by overlap extension PCR between amino acids P270 and D271 of CAR.
(§2) To characterize the specificity of chemicals for human FXR, LXRα, LXRβ, CAR and RORγ, we established in a similar manner HG5LN FXR, LXRα, LXRβ, CAR WT, CAR (APYLT) and RORγ reporter cell lines. […] These cells were stably transfected by pSG5-GAL4 (DBD)-NRs (LBD)-puromycin plasmid and selected in presence of 0.5 µg/ml puromycin. […] From each HG5LN NR cells, 5 to 10 clones were chosen for their ligand inducibility of luciferase expression. […] The most inducible clones were expanded and rechecked for inducibility and aliquots were frozen at different passages. One clone per receptor was maintained in culture and used for ligand screening. HG5LN cells were cultured in Dulbecco’s modified Eagle’s medium (DMEM): Nutrient Mixture F-12 (DMEM/F-12) containing phenol red and 1 g/l glucose and supplemented with 5% fetal bovine serum, 100 units/ml of penicillin, 100 µg/ml of streptomycin and 1 mg/ml geneticin, in 5% CO2 humidified atmosphere at 37°C. Stably transfected cell lines derived from HG5LN cells were cultured in the same culture medium supplemented with 0.5 µg/ml puromycin.
(§3) Individual reporter cell lines were seeded at a density of 40,000 cells per well in 96-well white opaque tissue culture plates (Greiner CellStar) in Dulbecco’s Modified Eagle Medium: Nutrient Mixture F-12 (DMEM/F-12) without phenol red and 1 g/l glucose and supplemented with 5% stripped fetal bovine serum, 100 units/ml of penicillin, 100 µg/ml of streptomycin (test medium). Chemicals to be tested were added 24h later, and cells were incubated at 37°C for 16h. Experiments were performed in quadruplicates. At the end of the incubation period, culture medium was replaced with test medium containing 0.3 mM luciferin solution. Luciferase activity was measured for 2s in intact living cells after 10 min stabilization using a Micro Beta Wallac luminometer (PerkinElmer). EC50 values were calculated using GraphPad Prism (GraphPad Software Inc).
(§4) Chemicals tested for agonism on FXR, LXRs, CAR (+ APYLT), PXR, and antagonism on CAR and RORγ were tested alone, without addition of any other ligand.
(§5) In the transactivation assay, each compound was tested at various concentrations in three independent experiments at least. For each experiment, tests were performed in quadruplicates for each concentration, and data are expressed by means values with standard deviations. Individual agonist dose–response curves, in the absence and presence of antagonist, were fitted using the sigmoid dose-response function of a graphics and statistics software program (GraphPad Prism, version 5.0). EC50 (effective concentration for half-maximal luciferase activity) and IC50 (half-maximal inhibitory concentration) values were calculated from equations used to fit the data in this graphic software. Transactivation data are presented as EC50 and IC50 values for each compound tested. To analyze significances, we compared individual compound treatments with controls using one-way analysis of variance (ANOVA) with the help of GraphPad Prism software.

[2] = target: T2, human RORγ (Homo sapiens, UniProt P51449); experiment: HG5LN GAL4-RORγ reporter cell line, inhibition of constitutive activity; conditions: inhibition of constitutive activity, tested alone; NE = No effect
T2 construct: RORγ (S97-K518); expressed in transfected cells; host or cells: HG5LN (HeLa cells carrying the (GAL4RE)5-βGlob-Luc-SVNeo reporter)
T2 sequence (P51449 97-518): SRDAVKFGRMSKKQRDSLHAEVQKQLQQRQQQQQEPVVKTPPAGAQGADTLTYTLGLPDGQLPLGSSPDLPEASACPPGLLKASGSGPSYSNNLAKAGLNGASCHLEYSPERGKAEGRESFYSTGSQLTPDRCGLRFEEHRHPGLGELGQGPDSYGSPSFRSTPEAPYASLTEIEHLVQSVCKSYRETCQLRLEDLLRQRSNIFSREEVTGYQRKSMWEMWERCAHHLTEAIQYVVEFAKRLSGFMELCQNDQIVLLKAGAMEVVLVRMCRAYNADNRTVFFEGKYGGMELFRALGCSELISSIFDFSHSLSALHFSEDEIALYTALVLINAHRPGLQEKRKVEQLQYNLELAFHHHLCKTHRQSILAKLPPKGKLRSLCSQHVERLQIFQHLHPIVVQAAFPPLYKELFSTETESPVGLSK
Description: as §1, §2, §3, §4, §5

[3] = target: T2, human RORγ; experiment: HG5LN GAL4-RORγ reporter cell line, agonist mode in presence of SR2211; conditions: read-out: RORγ (SR2211 1 mM) EC50; in presence of SR2211 1 mM; NE = No effect
Description: as §1, §2, §3, §4, §5

[4] = target: T3, human LXRα (Homo sapiens, UniProt Q13133); experiment: HG5LN GAL4-LXRα reporter cell line, agonist mode; conditions: HG5LN GAL4-LXRα cells, tested alone; NE = No effect; read-out: LXRα EC50
T3 construct: LXRα (A187-E447); expressed in transfected cells; host or cells: HG5LN (HeLa cells carrying the (GAL4RE)5-βGlob-Luc-SVNeo reporter)
T3 sequence (Q13133 187-447): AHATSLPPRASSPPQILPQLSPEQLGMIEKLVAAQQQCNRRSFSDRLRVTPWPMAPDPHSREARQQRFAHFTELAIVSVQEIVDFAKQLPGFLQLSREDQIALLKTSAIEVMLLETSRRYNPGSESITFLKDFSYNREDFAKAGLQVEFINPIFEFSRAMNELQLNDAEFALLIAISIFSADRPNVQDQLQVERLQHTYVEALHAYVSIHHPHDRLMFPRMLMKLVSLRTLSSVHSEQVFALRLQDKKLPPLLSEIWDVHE
Description: as §1, §2, §3, §4, §5

[5] = target: T3, human LXRα; experiment: HG5LN GAL4-LXRα reporter cell line, antagonist mode in presence of T0901317; conditions: read-out: LXRα (T0901317 20 nM) IC50; in presence of T0901317 20 nM; NE = No effect
Description: as §1, §2, §3, §4, §5

[6] = target: T1, human LXRβ; experiment: HG5LN GAL4-LXRβ reporter cell line, antagonist mode in presence of T0901317; conditions: read-out: LXRβ (T0901317 100 nM) IC50; in presence of T0901317 100 nM; NE = No effect
Description: as §1, §2, §3, §4, §5

[7] = target: T4, human PXR (Homo sapiens, UniProt O75469); experiment: HG5LN PXR reporter cell line, agonist mode; conditions: NE = No effect
T4 construct: The GAL4-NR chimeric cell lines provide uniform cellular model differing just in receptor LBDs; expressed in transfected cells; host or cells: HG5LN PXR (HeLa-derived; described in Delfosse et al., 2015)
T4 sequence (O75469 146-433 limits assumed): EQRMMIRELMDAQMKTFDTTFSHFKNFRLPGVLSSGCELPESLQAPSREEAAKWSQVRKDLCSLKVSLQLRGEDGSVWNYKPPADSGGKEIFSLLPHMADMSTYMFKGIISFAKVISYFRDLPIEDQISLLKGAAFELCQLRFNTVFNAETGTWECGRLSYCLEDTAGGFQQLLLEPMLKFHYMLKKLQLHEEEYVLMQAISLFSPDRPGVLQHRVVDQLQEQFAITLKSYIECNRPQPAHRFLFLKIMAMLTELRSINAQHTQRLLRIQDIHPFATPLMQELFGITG
Method: as §2, §3, §4, §5

- EC50 [1]: > 10 µM
- IC50 [2]: > 10 µM
- EC50 [3]: > 10 µM
- EC50 [4]: > 10 µM
- IC50 [5]: > 10 µM
- IC50 [6]: > 10 µM
- EC50 ([7]; HG5LN PXR cells, tested alone, read-out: PXR EC50): 0.726 ± 0.056 µM
- PXR % max act ([7]; maximal luciferase activity at 10^-5 M (10^-6 M *, 3 10^-6 M **), 100% = 3 µM SR12813, DMSO 19 ± 2): 80%
SMILES: CCC(C)N(C)C(=O)c1cc2ccccc2c(-c2ccccc2Cl)n1 (centres unmarked) [PK11195]
